The record followed here is patent US20110165565A1, “COMPOSITIONS AND METHODS FOR POLYNUCLEOTIDE EXTRACTION AND METHYLATION DETECTION” (THE JOHNS HOPKINS UNIVERSITY, priority 2008, published 2011).

This experiment relates to p16 promoter methylation in colorectal cancer cell line RKO. Briefly: MS-qFRET quantification of p16 methylation reversal in RKO cells treated with DAC. Format: cell-based. An excerpt: The quantitative ability of MS-qFRET was further tested in cell lines and in patient samples as a function of response to a DNA demethylating agent. Reversal of methylation in the colorectal cancer cell line, RKO, was quantified at specific time points after treatment with 5-aza-2′-deoxycytidine (DAC). […] Since DNA replication is necessary for incorporation of DAC into DNA, reversal of methylation may be best observed only after inhibition of DNA methyltransferases due to cell cycling. The low amount of methylation reversal in the initial 24 to 36 hours could be attributed to the 22 hour doubling time for RKO cells.
(ID and IA corresponding to donor and acceptor intensity).

SMILES strings stand for the structures.

Regarding `Nc1ncn([C@H]2C[C@H](O)[C@@H](CO)O2)c(=O)n1` [5-aza-2′-deoxycytidine (DAC), 5-aza-2′-deoxycytidine], the “q-score, level of p16 methylation post-treatment” value (DNA from RKO cells treated with DAC for different time points (FIG. 3C)) is recorded as “drop in the level of methylation”. For the same compound, where the note is “RKO cells, 1 μM DAC, post-treatment”, the “time of maximal reversal of methylation at p16” value turned out to be 60 h.
